Measured values: US20090325959A1 (priority 2008, published 2009)
Where two headings read alike, the source gives them in different places.

Experiments:
ROCK2 = biological target: T1, ROCK2 (Homo sapiens, UniProt O75116); test: Rho kinase inhibition assay (IMAP fluorescence polarization), ROCK2; assay type: biochemical;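 also: kinase reaction started with 10 µM ATP and run 60 min at room temperature, then phosphorylated substrate captured on IMAP beads for 30 min and fluorescence polarization read in mP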
T1 construct: purchased Upstate/Chemicon 14-451
T1 sequence (O75116 11-552 limits assumed): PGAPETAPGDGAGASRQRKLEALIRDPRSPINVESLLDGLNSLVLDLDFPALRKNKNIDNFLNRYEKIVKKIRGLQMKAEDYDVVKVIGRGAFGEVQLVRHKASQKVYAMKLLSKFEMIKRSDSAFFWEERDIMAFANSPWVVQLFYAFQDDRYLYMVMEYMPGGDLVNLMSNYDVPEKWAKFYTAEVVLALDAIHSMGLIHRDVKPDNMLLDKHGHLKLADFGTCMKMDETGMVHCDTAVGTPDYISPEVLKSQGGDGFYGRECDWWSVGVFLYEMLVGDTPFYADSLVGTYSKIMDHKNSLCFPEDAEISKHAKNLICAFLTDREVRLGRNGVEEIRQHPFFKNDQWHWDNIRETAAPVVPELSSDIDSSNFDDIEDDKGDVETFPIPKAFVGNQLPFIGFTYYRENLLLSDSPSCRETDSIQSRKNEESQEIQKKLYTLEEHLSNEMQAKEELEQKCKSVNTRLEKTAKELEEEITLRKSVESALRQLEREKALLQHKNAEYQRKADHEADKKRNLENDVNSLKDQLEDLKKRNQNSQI
Description: (§1) Following the pre-incubation, 10 μM ATP was added to initiate the reaction. After 60 minutes at room temperature, Molecular Devices IMAP™ binding solution was added to bind phosphorylated substrate. After 30 minutes of incubation in the presence of the IMAP™ beads, the fluorescence polarization was read and the ratio was reported as mP. IC50 values for compounds and EC50 values for ATP were calculated using the Prism software from Graphpad.

ROCK1 = biological target: T2, ROCK1 (Homo sapiens, UniProt Q13464); test: Rho kinase inhibition assay (IMAP fluorescence polarization), ROCK1; assay type: biochemical;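 also: kinase reaction run 60 min at room temperature, then phosphorylated substrate captured on IMAP beads for 30 min, with fluorescence polarization read in mP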
T2 construct: purchased Upstate/Chemicon 14-601
T2 sequence (Q13464 17-535 limits assumed): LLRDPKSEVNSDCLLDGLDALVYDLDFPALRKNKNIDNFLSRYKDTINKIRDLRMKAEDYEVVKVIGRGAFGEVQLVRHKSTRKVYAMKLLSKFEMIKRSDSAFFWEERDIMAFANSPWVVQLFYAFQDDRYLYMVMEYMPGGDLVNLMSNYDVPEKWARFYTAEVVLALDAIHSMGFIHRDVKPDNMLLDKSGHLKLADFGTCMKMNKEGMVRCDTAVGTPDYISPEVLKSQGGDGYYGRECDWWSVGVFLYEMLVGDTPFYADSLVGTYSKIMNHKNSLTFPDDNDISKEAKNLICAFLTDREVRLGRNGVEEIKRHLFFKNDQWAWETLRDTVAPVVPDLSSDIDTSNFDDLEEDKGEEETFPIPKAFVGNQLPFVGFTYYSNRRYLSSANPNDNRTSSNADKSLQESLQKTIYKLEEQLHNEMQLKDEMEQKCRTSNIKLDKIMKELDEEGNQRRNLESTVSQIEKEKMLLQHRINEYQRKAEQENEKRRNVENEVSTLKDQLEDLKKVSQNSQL
Description: as §1

human neutrophils = test: Human neutrophil chemotaxis induced by fMLP (modified Boyden chamber); assay type: cell-based
From the text: This assay is an in vitro assay of neutrophil chemotaxis that can be used to evaluate the ability of Rho Kinase inhibitor compounds of Formula I or II to inhibit the migration of human neutrophils, an inflammatory cell that has been implicated in the pathophysiology of allergic conjunctivitis.
Peripheral blood from healthy human volunteers was collected and the neutrophils were isolated by Ficoll-paque density centrifugation followed by dextran sedimentation and hypotonic lysis of the red blood cells. Neutrophil chemotaxis was assessed using a modified Boyden Chamber (Neuroprobe, 96-well) with a 3 μm pore polycarbonate membrane. The ability of the tested compounds to block chemotaxis induced by a 1 μM fMLP challenge during a one hour incubation at 37° C. with 5% CO2 was assessed in a dose response manner.

Akt3 human enzyme = biological target: T3, Akt3 human enzyme (Homo sapiens, UniProt Q9Y243); test: Akt3 inhibition assay (IMAP FP); assay type: biochemical;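 also: kinase reaction run 60 min at room temperature after 30 µM ATP start, phosphorylated substrate captured on IMAP beads and read as fluorescence polarization (mP)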
T3 construct: purchased Upstate Chemicon 14-502
T3 sequence (Q9Y243 whole entry): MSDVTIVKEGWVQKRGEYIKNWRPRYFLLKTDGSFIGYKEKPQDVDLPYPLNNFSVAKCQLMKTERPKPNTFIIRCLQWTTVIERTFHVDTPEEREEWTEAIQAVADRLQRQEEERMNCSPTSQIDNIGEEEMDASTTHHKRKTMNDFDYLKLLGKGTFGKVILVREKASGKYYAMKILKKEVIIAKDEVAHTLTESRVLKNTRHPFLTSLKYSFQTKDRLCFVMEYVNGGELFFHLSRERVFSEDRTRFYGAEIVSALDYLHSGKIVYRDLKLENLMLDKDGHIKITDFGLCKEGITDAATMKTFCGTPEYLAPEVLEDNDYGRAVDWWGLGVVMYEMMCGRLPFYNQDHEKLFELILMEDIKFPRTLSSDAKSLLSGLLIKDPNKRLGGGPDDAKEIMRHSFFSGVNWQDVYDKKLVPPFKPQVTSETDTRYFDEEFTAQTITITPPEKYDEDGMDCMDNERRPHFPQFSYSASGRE
Description: Inhibition of Akt3 and p70S6K activity was determined using the IMAP™ FP Progressive Binding Kit (Molecular Devices product number R8127). […] Following the pre-incubation, 30 μM ATP was added to initiate the reaction. After 60 minutes at RT, Molecular Devices IMAP™ binding solution was added to bind phosphorylated substrate. After 30 minutes of incubation in the presence of the IMAP™ beads the fluorescence polarization was read and the ratio was reported as mP. IC50 results were calculated using the Prism software from Graphpad. The Ki values were determined according to the following formula: Ki=IC50/(1+([ATP Challenge]/EC50 ATP)).

p70S6K human enzyme = biological target: T4, p70S6K human enzyme (Homo sapiens, UniProt P23443, T412E); test: p70S6K inhibition assay (IMAP FP); assay type: biochemical;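 also: kinase reaction run at room temperature, phosphorylated substrate captured on IMAP beads and read as fluorescence polarization in mP, IC50 then converted to Ki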
T4 construct: purchased Upstate Chemicon 14-486
T4 sequence (P23443 1-421 T412E limits assumed): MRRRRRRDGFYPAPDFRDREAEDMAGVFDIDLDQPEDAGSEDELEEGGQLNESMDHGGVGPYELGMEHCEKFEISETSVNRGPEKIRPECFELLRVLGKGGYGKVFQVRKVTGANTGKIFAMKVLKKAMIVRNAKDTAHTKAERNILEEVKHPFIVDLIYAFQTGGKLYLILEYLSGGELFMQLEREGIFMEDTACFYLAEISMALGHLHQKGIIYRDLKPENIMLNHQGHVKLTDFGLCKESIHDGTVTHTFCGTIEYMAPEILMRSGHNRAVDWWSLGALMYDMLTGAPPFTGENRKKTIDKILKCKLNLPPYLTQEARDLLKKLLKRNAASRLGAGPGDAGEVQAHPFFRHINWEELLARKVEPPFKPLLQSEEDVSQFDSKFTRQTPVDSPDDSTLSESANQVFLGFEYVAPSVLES

[1] = Rat oral pharmacokinetics (plasma); assay type: in vivo; conditions: 20-30 μmol/kg; for Vz_F / AUC(0-t): mean n = 3; for AUC(0-t) / Cmax / Tmax / half-life: male, CD Sprague Dawley; for Cmax: mean n = 3, read-out: Cmax; for Tmax: mean n = 3, read-out: Tmax; for half-life: mean n = 3, read-out: t½ (converted)
Description: Plasma (EDTA K2 anticoagulant) was collected from male, cannulated, CD Sprague Dawley rats to determine the pharmacokinetics of formulations containing compound inhibitors of Rho kinase. Each animal was dosed orally with a 4 ml/kg solution or suspension of each test compound in 10 mM acetate buffered saline, pH 4.5 at a final concentration range of 20-30 μmol/kg. Blood was collected at 0.25, 0.5, 1, 2, 4, 6, 8, and 24 hours. Plasma samples were assayed for the concentration of the test compound using an on-line, solid phase extraction LC/MS/MS analysis system.
Samples were analyzed on a QSTAR Elite, hybrid quadrupole time-of-flight mass spectrometer (Applied Biosystems, Framingham, Mass.) coupled with a Symbiosis Pharma integrated, on-line SPE-HPLC system (Spark Holland Inc., Plainsboro, N.J.). Analyst QS 2.0 software was used for instrument control, data acquisition and processing. […] Mobile Phase A consisted of 0.1% ammonium hydroxide in water and Mobile Phase B consisted of 0.1% formic acid in acetonitrile. Pharmacokinetic analyses were performed using WinNonlin software version 5.2 (Pharsight Corporation, Mountain View, Calif.).
As determined from the plasma concentration versus time curves, the time to peak and peak exposure are represented by the values Tmax and Cmax, respectively. The AUC values (nM*hr) shown were calculated as the areas under the plasma concentration versus time curves from time zero through the time of the last observable value and represent the total exposure of the compound over the course of the study. Half-life values or the amount of time required for the plasma levels of the compound to decline to half the initial value are represented as t½.

[2] = system: A-10 rat thoracic aorta cells; test: PDGF-stimulated smooth muscle cell proliferation assay (BrdU incorporation); assay type: cell-based; conditions: A-10 cells, 10 ng/mL PDGF, BrdU incorporation, percent of total challenge-stimulated proliferation; for Percent of PDGF Induced Proliferation at 1 μM Avg: 1 μM test compound; for Percent of PDGF Induced Proliferation at 10 μM Avg: 10 μM test compound;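 as to all read-outs here: cells kept in serum-free medium, BrdU allowed to incorporate for 24 h, then incorporated label detected fluorometrically with an anti-BrdU antibody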
[3] = Compound plasma concentrations in unsensitized mice at 15 min post administration; assay type: in vivo; conditions: mouse, 15 μmol/kg; mean compound plasma concentration in mice at 15 minutes post oral administration; read-out: Mouse Oral PK
[4] = 10 μM ATP, read-out: ROCK2 Ki, Avg
[5] = Neutrophil, 1 h, 1 μM fMLP challenge, one hour, read-out: Chemotaxis Avg. IC50
[6] = 30 μM ATP, Ki=IC50/(1+([ATP Challenge]/EC50 ATP)), read-out: Akt3 Ki, Avg
[7] = 30 μM ATP, Ki=IC50/(1+([ATP Challenge]/EC50 ATP)), read-out: p70S6K Ki, Avg
[8] = average Ki, read-out: p70S6K Ki
[9] = average IC50 for inhibition of fMLP-induced neutrophil chemotaxis, read-out: Chemotaxis IC50

Structure (SMILES): CS(=O)(=O)Nc1cccc(CN2CCC(Nc3ccc4[nH]ncc4c3)C2)c1 (stereo not drawn) [Compound 1.087, N-(3-((3-(1H-indazol-5-ylamino)pyrrolidin-1-yl)methyl)phenyl)methanesulfonamide]
- Ki (ROCK2; [4]): 15.4 nM
- Ki (ROCK1; Avg, 10 μM ATP): 84.1 nM
- IC50 (human neutrophils; [5]): 4500 nM

Structure (SMILES): NC(=O)Cn1ccc2ccc(CN3CCC[C@H](Nc4ccc5[nH]ncc5c4)C3)cc21 [Compound 1.107, (S)-2-(6-((3-(1H-indazol-5-ylamino)piperidin-1-yl)methyl)-1H-indol-1-yl)acetamide]
- Ki (Akt3 human enzyme; [6]): 16300 nM
- Ki (ROCK2; [4]): 14 nM
- Ki (p70S6K human enzyme; [7]): 3360 nM
- Vz_F [1]: 36.3 L/kg
- AUC(0-t) [1]: 1.59 µM·h
- Cmax [1]: 544 nM
- Tmax [1]: 1.67 h
- half-life [1]: 1.28 h
- Ki (ROCK1; Avg, 10 μM ATP): 234 nM

Structure (SMILES): OCCn1ccc2ccc(CN3CCC[C@@H](Nc4ccc5[nH]ncc5c4)C3)cc21 [Compound 1.108, (R)-2-(6-((3-(1H-indazol-5-ylamino)piperidin-1-yl)methyl)-1H-indol-1-yl)ethanol]
- Ki (Akt3 human enzyme; [6]): 205 nM
- Ki (Akt3 human enzyme; average Ki, read-out: Akt3 Ki): 205 nM
- Percent of PDGF Induced Proliferation at 1 μM Avg [2]: 83.1%
- Percent of PDGF Induced Proliferation at 10 μM Avg [2]: 43.7%
- Ki (ROCK2; [4]): 6.5 nM
- Ki (ROCK2; average Ki, read-out: ROCK2 Ki): 6.5 nM
- Ki (p70S6K human enzyme; [7]): 511 nM
- Ki (p70S6K human enzyme; [8]): 511 nM
- Vz_F [1]: 116 L/kg
- AUC(0-t) [1]: 0.415 µM·h
- Cmax [1]: 209 nM
- Tmax [1]: 0.83 h
- half-life [1]: 1.36 h
- Ki (ROCK1; Avg, 10 μM ATP): 25.6 nM
- Ki (ROCK1; average Ki): 25.6 nM
- concentration at 15 min [3]: 395 nM

Structure (SMILES): c1cc2cc(CN3CCC[C@@H](Nc4ccc5[nH]ncc5c4)C3)ccc2s1 [Compound 1.138, (R)-N-(1-(benzo[b]thiophen-5-ylmethyl)piperidin-3-yl)-1H-indazol-5-amine]
- Ki (Akt3 human enzyme; [6]): 91.3 nM
- Ki (Akt3 human enzyme; average Ki, read-out: Akt3 Ki): 91.3 nM
- Percent of PDGF Induced Proliferation at 1 μM Avg [2]: 46.3%
- Percent of PDGF Induced Proliferation at 10 μM Avg [2]: 27.0%
- Ki (ROCK2; [4]): 7.2 nM
- Ki (ROCK2; average Ki, read-out: ROCK2 Ki): 6.3 nM
- Ki (p70S6K human enzyme; [7]): 444 nM
- Ki (p70S6K human enzyme; [8]): 444 nM
- Ki (ROCK1; Avg, 10 μM ATP): 36.3 nM
- Ki (ROCK1; average Ki): 41.1 nM
- concentration at 15 min [3]: 1860 nM
- IC50 (human neutrophils; [5]): 1850 nM
- IC50 (human neutrophils; [9]): 1900 nM

Structure (SMILES): Cc1ccc(CN2CC[C@@H](Nc3cccc4cnccc34)C2)cc1 [Compound 2.025, (R)-N-(1-(4-methylbenzyl)pyrrolidin-3-yl)isoquinolin-5-amine]
- Ki (Akt3 human enzyme; [6]): 966 nM
- Ki (Akt3 human enzyme; average Ki, read-out: Akt3 Ki): 966 nM
- Percent of PDGF Induced Proliferation at 1 μM Avg [2]: 69.8%
- Percent of PDGF Induced Proliferation at 10 μM Avg [2]: 68.0%
- Ki (ROCK2; [4]): 2.9 nM
- Ki (ROCK2; average Ki, read-out: ROCK2 Ki): 2.9 nM
- Ki (p70S6K human enzyme; [7]): 499 nM
- Ki (p70S6K human enzyme; [8]): 499 nM
- Ki (ROCK1; Avg, 10 μM ATP): 6.9 nM
- Ki (ROCK1; average Ki): 6.9 nM
- concentration at 15 min [3]: 74 nM
- IC50 (human neutrophils; [5]): 1650 nM
- IC50 (human neutrophils; [9]): 1700 nM

Structure (SMILES): OCCOc1cccc(CN2CCC[C@@H](Nc3cccc4cnccc34)C2)c1 [Compound 2.034, (R)-2-(3-((3-(isoquinolin-5-ylamino)piperidin-1-yl)methyl)phenoxy)ethanol]
- Ki (ROCK2; [4]): 221 nM
- Ki (ROCK1; Avg, 10 μM ATP): 1000 nM
- IC50 (human neutrophils; [5]): 4730 nM

Structure (SMILES): CS(=O)(=O)Nc1cccc(CN2CC[C@H](Nc3cccc4cnccc34)C2)c1 [Compound 2.035, (S)-N-(3-((3-(isoquinolin-5-ylamino)pyrrolidin-1-yl)methyl)phenyl)methanesulfonamide]
- Ki (ROCK2; [4]): 202 nM
- Ki (ROCK1; Avg, 10 μM ATP): 601 nM
- IC50 (human neutrophils; [5]): 6600 nM

Structure (SMILES): OCCOc1cccc(CN2CCC[C@H](Nc3cccc4cnccc34)C2)c1 [Compound 2.036, (S)-2-(3-((3-(isoquinolin-5-ylamino)piperidin-1-yl)methyl)phenoxy)ethanol]
- Ki (ROCK2; [4]): 233 nM
- Ki (ROCK1; Avg, 10 μM ATP): 579 nM
- IC50 (human neutrophils; [5]): 2770 nM

Structure (SMILES): Cc1ccc(CN2CCC[C@H](Nc3cccc4cnccc34)C2)cc1 [Compound 2.045, (S)-N-(1-(4-methylbenzyl)piperidin-3-yl)isoquinolin-5-amine]
- Ki (ROCK2; [4]): 88 nM
- Vz_F [1]: 226 L/kg
- AUC(0-t) [1]: 0.456 µM·h
- Cmax [1]: 223 nM
- Tmax [1]: 0.67 h
- half-life [1]: 1.59 h
- Ki (ROCK1; Avg, 10 μM ATP): 90.6 nM

Structure (SMILES): C[C@@H](N)c1ccc(C(=O)Nc2ccnc3[nH]ccc23)cc1 [Compound Y-39983, reference compound]
- IC50 (human neutrophils; [5]): 1390 nM

Structure (SMILES): O=S(=O)(c1cccc2cnccc12)N1CCCNCC1 [fasudil, reference compound]
- IC50 (human neutrophils; [5]): 23800 nM
